Experiments:
LEF1 = test: qPCR of WNT pathway regulator LEF1; type: cell-based, human; settings: for LEF1 expression, fold change vs Control: CD19.CAR; for LEF1 expression, fold change vs Control / LEF1 expression vs Control: day 15, n=4; for LEF1 expression vs Control: GD2.CAR
From the text: Primary T cells were activated as described (Example 3), transduced with a lentivirus encoding either a shUSP16 #1, shUSP16 #2 or a non-targeting shRNA (shCtrl) and cells were selected with puromycin at day 6. At day 15 cell were collected and analyzed by qPCR for the expression of LEF1 (FIG. 16A) and TCF7 (FIG. 16B), downstream regulators of the WNT pathway. At day 20, cells were stained for CD4-PE, CD8-BV510, CD62L-Allophycocyanin and CD45RA-APC-Cy7 (Biolegend). Stem cell memory T cells (Tscm) were identified as Sytox^− GFP^+CD45RA^+CD62L^+, central memory T cells (Tcm) as Sytox^−GFP^+CD45RA^−CD62L^+, effector memory T cells (Tem) as Sytox^−GFP^+CD45RA^−CD62L^−, and terminal effector T cell (Teff) as Sytox^−GFP^+CD45RA^+CD62L^− (FIG. 17A). Cells were gated on the CD8 population. The specific increase of Tscm was shown as phenotype ratio (FIG. 17B).
Primary T cells were activated as described (Example 3), transduced with a lentivirus encoding for either a CD19.CAR or a GD2.CAR co-expressing shUSP16 #1, shUSP16 #2 or a scrambled shRNA (Control). Fifteen days post-activation, T cells were collected and qPCR performed. TaqMan probes detecting CDKN1A, CDKN2A (FIGS. 26A and 26B) (fold change GD2.CAR (n=4): CDKN1A Control vs shUSP #1: 0.4360, p<0.0001, and Control vs shUSP16 #2: 3.036, p=0.004 respectively. Fold change CD19.CAR (n=4): CDKN2a, CDKN1A Control vs shUSP #1: 0.6906, p=0.0026; 0.7228, p=0.0297 and Control vs shUSP16 #2: 0.8385, p=0.2325; 0.7017, p=0.0021), TCF7, LEF1, and Axin-2 (FIGS. 27A and B) were analyzed in GD2.CAR and CD19.CAR-expressing cells, respectively. ACTB was used as internal control. (GD2.CAR (n=4) TCF7, LEF1 and Axin-2: Control vs shUSP #1: 1.914 p=0.0512; 1.795 p=0.0323; 3.269 p=0.15 and Control vs shUSP16 #2: 1.284 p=0.0494; 1.718 p=0.0586; 2.035p=0.235, respectively. Fold change CD19.CAR (n=4): TCF7, LEF1 and Axin-2: Control vs shUSP #1: 1.528, p=0.0277; 1.82, p=0.0449; 1.998, p=0.031 and Control vs shUSP16 #2: 1.18, p=0.2002; 1.579, p=0.0632; 1.261, p=0.2382). USP16 downregulation in CAR-T cells results in a decreased expression of senescence markers and an increase in the expression of genes associated with the activation/increased signaling of the WNT pathway, indicating its importance in delaying cellular senescence and increasing self-renewal.

USP16 = test: qPCR of USP16 expression; type: cell-based, human; settings: for downregulation of USP16 (Ctrl vs shRNA): primary T cells, day 15
From the text: A new set of shRNAs were cloned into the pSIH backbone, where the shRNA expression is driven by the H1 promoter. The vector was also engineered to co-express GFP and Puromycin resistance through a T2A sequence. The new shRNA sequences were: shUSP16 #1 5′-[…]-3′ (SEQ ID NO: 8) and shUSP16 #2 5′-[…]-3′ (SEQ ID NO: 9). Primary T cells were activated as described (Example 3), transduced with a lentivirus encoding either a shUSP16 #1, shUSP16 #2 or a scrambled shRNA (Control) and cells were selected with puromycin at day 6. Between 1 and 1.25×10^6 cells were plated post-puromycin selection with a purity higher than 90% and counted every 2-4 days by Trypan Blue exclusion using Vi-CELL XR cell counter (Beckman Coulter). qPCR was performed to verify downregulation of USP16 expression (FIG. 14A) and the expression of the senescent marker CDKN1A (FIG. 14B) at day 15. Proliferation was measured as fold increased compared to shControl at day 15 post-activation. The experiment was repeated using primary T cells obtained from buffy coats of 3 different healthy donors.
Primary T cells were activated as described (Example 3). At Day 6 post-activation, dynabeads were removed and T cells electroporated using the Neon Transfection System (ThermoFisher) with a 2.5:1 ratio sgRNA:Cas9. The experiment was performed following the protocol optimized for primary T cell by Synthego (CRISPR Editing Human Primary CD4+ T cells with RNPs using Neon Electroporation Protocol, 2018 version). The sgRNA used are the following: gUSP16 #1 5′-[…]-3′ (SEQ ID NO: 10) and gSynthego that comprises 3 different sgRNAs (gRNA-A: 5′-[…] 3′ (SEQ ID NO: 11); gRNA-B: 5′-[…]-3′ (SEQ ID NO: 12); gRNA-C: 5′-[…]-3′ (SEQ ID NO: 13)). Control T cells, identified as Mock, were electroporated but no Cas9:sgRNA mixture was added. […] At day 15 post-activation, cells were stained for CD4-PE, CD8-BV510, CD62L-Allophycocyanin and CD45RA-APC-Cy7 (Biolegend). Stem cell memory T cells (Tscm) were identified as Sytox^−GFP^+CD45RA^+CD62L^+ and graphed as ratio compared to mock cells (FIG. 22). The experiment was repeated using primary T cells obtained from buffy coats of 2 different healthy donors.
Primary T cells were activated as described (Example 3), transduced with a lentivirus encoding for either a CD19.CAR or a GD2.CAR co-expressing shUSP16 #1, shUSP16 #2 or a scrambled shRNA (Control). Cells were cultured in IL-2 and sorted between days 6-13 for EGFRt. Cells were plated post-sorting with a purity higher than 85% and counted every 2-4 days by Trypan Blue exclusion using Vi-CELL XR cell counter. Fifteen days post-activation both CD19.CAR and GD2.CAR T cells were collected, and qPCR was performed to verify downregulation of USP16 expression (FIG. 24) (fold change GD2.CAR (n=3): Control vs shUSP #1: 0.35, p<0.0001, and Control vs shUSP16 #2: 0.2452, p<0.0001, fold change CD19.CAR (n=4): Control vs shUSP #1: 0.2891, p<0.0001, and Control vs shUSP16 #2: 0.2566, p<0.0001). Proliferation was measured as fold increase compared to control cells at day 15 (FIG. 25).

Substance	LEF1 expression, fold change vs Control (LEF1)	LEF1 expression vs Control (LEF1)	LEF1 expression, fold increase over Control (LEF1; primary T cells, day 15)	USP16 expression, fold change vs Control (USP16; CD19.CAR T cells, day 15, n=4)	USP16 expression, fold change vs Control (USP16; GD2.CAR T cells, day 15, n=3)	downregulation of USP16 (Ctrl vs shRNA) (USP16) [%]
shUSP16 #1: shRNA targeting USP16, 5′-GACTGTAAGACTGACAATAAA-3′ (SEQ ID NO: 8), pSIH backbone or co-expressed in CAR plasmid	1.82	1.795	1.650	0.2891	0.35	56
shUSP16 #2: shRNA targeting USP16, 5′-TATATCAGTTCACCCGTAAT-3′ (SEQ ID NO: 9), pSIH backbone or co-expressed in CAR plasmid	1.579	1.718		0.2566	0.2452	53

Reference: US20210290680A1, “METHODS AND COMPOSITIONS FOR MODULATING CELLULAR AGING” (Dorian Therapeutics, Inc., priority 2019, published 2021)
